Holding throughout (assay type): biochemical
One assay has as its target cathepsin B (Homo sapiens, UniProt P07858). Kind of assay: Inhibitory activity assay against cathepsin B (enzyme assay). The settings on record: Z-Arg-Arg-AMC 40 μM, enzyme 1 nM, pH 6.0, 90 minutes. The method, boiled down: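 1 nM enzyme with 40 μM Z-Arg-Arg-AMC and compound (10.0 μM down to 0.000508 μM, 10 points) in pH 6.0 buffer of 50 mM MES, 5 mM DTT, 2.5 mM EDTA, 0.005% Polysorbate 20, 10% DMSO. Fluorescence (340/460 nm) read after 90 min; IC50 by 4-parameter logistic fit.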

Another assay addresses cathepsin S (Homo sapiens, UniProt P25774). Kind of assay: Inhibitory activity assay against cathepsin S (enzyme assay). As to conditions: Z-Phe-Arg-AMC 70 μM, enzyme 3 nM, pH 6.5, 45 minutes. The method, boiled down: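 Cathepsin S (3 nM final) with Z-Phe-Arg-AMC substrate (70 μM final) in pH 6.5 buffer of 50 mM MES, 2.5 mM DTT, 1.0 mM EDTA, 0.001% BSA, 10% DMSO; compound 10.0 μM down to 0.000508 μM, 10 points. Fluorescence (ex 340/em 460 nm) after 45 min; IC50 by 4-parameter logistic fit.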

The next assay addresses T1, cathepsin K (Homo sapiens, UniProt P43235).
T1 sequence (P43235 115-329): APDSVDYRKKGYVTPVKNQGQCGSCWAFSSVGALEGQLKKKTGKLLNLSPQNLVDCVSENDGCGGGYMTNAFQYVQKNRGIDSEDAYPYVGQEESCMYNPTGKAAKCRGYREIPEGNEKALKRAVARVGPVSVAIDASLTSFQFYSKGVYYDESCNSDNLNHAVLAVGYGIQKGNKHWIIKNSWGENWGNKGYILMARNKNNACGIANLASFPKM
Kind of assay: Inhibitory activity assay against cathepsin K (enzyme assay). As to conditions: Z-Phe-Arg-AMC 10 μM, enzyme 1 nM, pH 5.5, 30 minutes. The method, boiled down:
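Fluorogenic assay with 1 nM cathepsin K and 10 μM Z-Phe-Arg-AMC in pH 5.5 buffer (50 mM MES, 2 mM DTT, 2.5 mM EDTA, 0.01% Triton X-100, 10% DMSO). Ten compound concentrations, 10.0 to 0.000508 μM; 30 min reaction, ex 355/em 460 nm; IC50 by 4-parameter logistic fit.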

The target in the next assay is cathepsin L (Homo sapiens, UniProt P07711). Kind of assay: Inhibitory activity assay against cathepsin L (enzyme assay). As to conditions: Z-Phe-Arg-AMC 2 μM, enzyme 3 nM, pH 5.5, 30 minutes. The method, boiled down:
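Enzyme at 3 nM with 2 μM Z-Phe-Arg-AMC in 50 mM MES pH 5.5, 2.5 mM DTT, 2.5 mM EDTA, 0.005% Polysorbate 20, 10% DMSO; 30 min reaction, AMC fluorescence 340/460 nm. Ten-point series 10.0 μM to 0.000508 μM; IC50 by 4-parameter logistic fit.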

Each structure is given as a SMILES string.

cathepsin S, sequence (P25774 115-331, species assumed): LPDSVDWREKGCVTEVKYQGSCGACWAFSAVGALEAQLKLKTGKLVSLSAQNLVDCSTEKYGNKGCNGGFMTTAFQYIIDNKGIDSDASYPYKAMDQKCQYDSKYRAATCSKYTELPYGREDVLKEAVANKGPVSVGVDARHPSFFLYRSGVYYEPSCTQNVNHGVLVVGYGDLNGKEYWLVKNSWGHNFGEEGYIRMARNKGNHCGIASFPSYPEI
cathepsin L, sequence (P07711 114-333, species assumed): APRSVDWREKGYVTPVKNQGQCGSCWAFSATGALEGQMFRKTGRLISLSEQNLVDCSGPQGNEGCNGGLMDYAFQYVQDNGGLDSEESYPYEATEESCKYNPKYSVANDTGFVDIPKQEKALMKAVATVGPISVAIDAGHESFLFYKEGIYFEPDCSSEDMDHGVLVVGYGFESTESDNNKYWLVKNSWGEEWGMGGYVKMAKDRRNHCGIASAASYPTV

Take `N#Cc1nccc(C2(NC(=O)OCc3cccc(-c4ccc(F)nc4)c3)CCCC2)n1` [Example 35, 3-(6-fluoropyridin-3-yl)benzyl (1-(2-cyanopyrimidin-4-yl)cyclopentyl)carbamate]: the 50% inhibitory concentration (IC50) – broadly, the concentration at which inhibition is half-maximal – was greater than 10000 nM against cathepsin B, greater than 10000 nM against cathepsin S, 492 nM on cathepsin K and greater than 10000 nM on cathepsin L.
With `N#Cc1nccc(C2(NC(=O)Nc3ccc(-c4ccccc4F)cc3)CCCCC2)n1` [Example 124, 1-(1-(2-cyanopyrimidin-4-yl)cyclohexyl)-3-(2′-fluoro-[1,1′-biphenyl]-4-yl)urea], the IC50 was greater than 10000 nM against cathepsin B, greater than 10000 nM at cathepsin S, 6.9 nM on cathepsin K and greater than 10000 nM against cathepsin L.
As for `N#Cc1nccc(C2(NC(=O)Nc3cccc(C(F)(F)F)c3)CCCC2)n1` [Example 60, 1-(1-(2-cyanopyrimidin-4-yl)cyclopentyl)-3-(3-(trifluoromethyl)phenyl)urea], the IC50 against cathepsin B is 8780 nM; at cathepsin S it was greater than 10000 nM; at cathepsin K, 21.6 nM; against cathepsin L, greater than 10000 nM.
`N#Cc1nccc(C2(NC(=O)OCc3ccc(Br)cc3)CCCCC2)n1` [Example 11, 4-bromobenzyl (1-(2-cyanopyrimidin-4-yl)cyclohexyl)carbamate]: the IC50 is greater than 10000 nM at cathepsin B, greater than 10000 nM at cathepsin S, 18.8 nM at cathepsin K and greater than 10000 nM at cathepsin L.
Consider `Cc1ccc(NC(=O)NC2(c3ccnc(C#N)n3)CCCC2)cc1C` [Example 62, 1-(1-(2-cyanopyrimidin-4-yl)cyclopentyl)-3-(3,4-dimethylphenyl)urea], for which the IC50 is greater than 10000 nM against cathepsin B, greater than 10000 nM against cathepsin S, 83.7 nM on cathepsin K and greater than 10000 nM against cathepsin L.
On to `N#Cc1nccc(C2(NC(=O)Nc3ccc(Cc4ccccc4)cc3)CCCCC2)n1` [Example 100, 1-(4-benzylphenyl)-3-(1-(2-cyanopyrimidin-4-yl)cyclohexyl)urea], for which the IC50 is greater than 10000 nM against cathepsin B, greater than 10000 nM against cathepsin S, 15.4 nM at cathepsin K and greater than 10000 nM against cathepsin L.
For `N#Cc1nccc(C2(NC(=O)Nc3ccc(-c4ccc(C(=O)N5CCCC5)c(Cl)c4)cc3)CCCCC2)n1` [Example 150, 1-(3′-chloro-4′-(pyrrolidin-1-carbonyl)-[1,1′-biphenyl]-4-yl)-3-(1-(2-cyanopyrimidin-4-yl)cyclohexyl)urea], the IC50 at cathepsin B is greater than 10000 nM; against cathepsin S it was greater than 10000 nM; at cathepsin K, 6.6 nM; on cathepsin L, 8920 nM.
Consider `N#Cc1nccc(C2(NC(=O)NCc3ccc4c(c3)OCO4)CCCC2)n1` [Example 43, 1-(benzo[d][1,3]dioxol-5-ylmethyl)-3-(1-(2-cyanopyrimidin-4-yl)cyclopentyl)urea], for which the IC50 at cathepsin B was greater than 10000 nM; at cathepsin S it was greater than 10000 nM; on cathepsin K, 462 nM; on cathepsin L, greater than 10000 nM.
For the molecule `N#Cc1nccc(C2(NC(=O)Nc3ccc(-c4ccc(C(=O)NCCn5ccnc5)cc4)c(F)c3)CCCCC2)n1` [Example 186, N-(2-(1H-imidazol-1-yl)ethyl)-4′-(3-(1-(2-cyanopyrimidin-4-yl)cyclohexyl)ureido)-2′-fluoro-[1,1′-biphenyl]-4-carboxamide], the half-maximal inhibitory concentration (IC50) against cathepsin B is 2740 nM; against cathepsin S, greater than 10000 nM; on cathepsin K it was 0.1 nM; against cathepsin L, 2020 nM.
On to `N#Cc1nccc(C2(NC(=O)Nc3ccc(-c4ccccc4C(F)(F)F)cc3)CCCCC2)n1` [Example 172, 1-(1-(2-cyanopyrimidin-4-yl)cyclohexyl)-3-(2′-(trifluoromethyl)-[1,1′-biphenyl]-4-yl)urea], for which the half-maximal inhibitory concentration (IC50) at cathepsin B is greater than 10000 nM; on cathepsin S, 8020 nM; on cathepsin K, 108 nM; at cathepsin L it was greater than 10000 nM.
As for `COc1ccc(COC(=O)NC2(c3ccnc(C#N)n3)CCCCC2)cc1` [Example 25, 4-methoxybenzyl (1-(2-cyanopyrimidin-4-yl)cyclohexyl)carbamate], the IC50 is greater than 10000 nM on cathepsin B, greater than 10000 nM against cathepsin S, 41 nM on cathepsin K and greater than 10000 nM against cathepsin L.
Regarding `N#Cc1nccc(C2(NC(=O)OCc3ccc(Cl)cc3)CCCCC2)n1` [Example 23, 4-chlorobenzyl (1-(2-cyanopyrimidin-4-yl)cyclohexyl)carbamate], the concentration for half-maximal inhibition (IC50) against cathepsin B was greater than 10000 nM; against cathepsin S it was greater than 10000 nM; on cathepsin K it was 19.9 nM; at cathepsin L, greater than 10000 nM.
As for `Cc1ccc(C)c(NC(=O)NC2(c3ccnc(C#N)n3)CCC(C)(C)CC2)c1` [Example 84, 1-(1-(2-cyanopyrimidin-4-yl)-4,4-dimethylcyclohexyl)-3-(2,5-dimethylphenyl)urea], the IC50 against cathepsin B is greater than 10000 nM; against cathepsin S, 1680 nM; at cathepsin K, 44.3 nM; against cathepsin L it was 3410 nM.
On the same counts, the results for `N#Cc1nccc(C2(NC(=O)Nc3ccc(-c4ccc(F)nc4)cc3)CCCCC2)n1` [Example 125, 1-(1-(2-cyanopyrimidin-4-yl)cyclohexyl)-3-(4-(6-fluoropyridin-3-yl)phenyl)urea] are greater than 10000 nM, 5420 nM, 15.2 nM and greater than 10000 nM.
As for `Cc1ccc(F)c(NC(=O)NC2(c3ccnc(C#N)n3)CCCCC2)c1` [Example 94, 1-(1-(2-cyanopyrimidin-4-yl)cyclohexyl)-3-(2-fluoro-5-methylphenyl)urea], the IC50 at cathepsin B was greater than 10000 nM; against cathepsin S, 8240 nM; at cathepsin K it was 9 nM; against cathepsin L, 1130 nM.
On the same counts, the results for `N#Cc1nccc(C2(NC(=O)Nc3ccc(-c4ccc(S(=O)(=O)C(F)(F)F)cc4)c(C(F)(F)F)c3)CCCCC2)n1` [Example 177, 1-(1-(2-cyanopyrimidin-4-yl)cyclohexyl)-3-(2-(trifluoromethyl)-4′-((trifluoromethyl)sulfonyl)-[1,1′-biphenyl]-4-yl)urea] are greater than 10000 nM, 6140 nM, 205 nM and greater than 10000 nM.
Take `N#Cc1nccc(C2(NC(=O)NCc3ccccc3C(F)(F)F)CCCC2)n1` [Example 56, 1-(1-(2-cyanopyrimidin-4-yl)cyclopentyl)-3-(2-(trifluoromethyl)benzyl)urea]: the IC50 against cathepsin B is greater than 10000 nM; against cathepsin S, greater than 10000 nM; at cathepsin K, 101 nM; on cathepsin L, greater than 10000 nM.
Turning to `N#Cc1nccc(C2(NC(=O)Nc3cccc(Br)c3)CCCCC2)n1` [Example 109, 1-(3-bromophenyl)-3-(1-(2-cyanopyrimidin-4-yl)cyclohexyl)urea], the concentration for half-maximal inhibition (IC50) was greater than 10000 nM on cathepsin B, 7620 nM on cathepsin S, 11 nM at cathepsin K and 1920 nM against cathepsin L.
For `CC(=O)NCc1ccc(-c2ccc(NC(=O)NC3(c4ccnc(C#N)n4)CCCCC3)cc2)cc1` [Example 151, N-((4′-(3-(1-(2-cyanopyrimidin-4-yl)cyclohexyl)ureido)-[1,1′-biphenyl]-4-yl)methyl)acetamide], the IC50 was greater than 10000 nM at cathepsin B, greater than 10000 nM at cathepsin S, 2 nM on cathepsin K and greater than 10000 nM against cathepsin L.

For the origin of these results see US11299478B2, “2-cyanopyrimidin-4-yl carbamate or urea derivative or salt thereof, and pharmaceutical composition including same” (HANLIM PHARMACEUTICAL CO., LTD., priority 2018, dated 2022).
